Each structure is given as a SMILES string.

We go through 28 compounds from patent publication US9573957B2 (Boehringer Ingelheim International GmbH, priority 2013, dated 2017).

One experiment deals with human LTA4 hydrolase (Homo sapiens (Human), UniProt P09960). Put plainly: LTA4H Enzyme assay (peptidase, Arg-AMC cleavage). The class given is biochemical. As to conditions: LTA4H Enzyme 1 nM, Arg-AMC substrate 50 μM, room temperature 1 h, fluorescence. Here is the method: The compounds of the invention are assessed for the ability to interact with human LTA4 hydrolase in an enzymatic assay that measures the ability of the enzyme to cleave the peptide bond of arginyl-aminomethylcoumarin (Arg-AMC). LTA4H Enzyme (1 nM final), Arg-AMC substrate (50 μM final), and compound are combined in a reaction buffer (50 mM Tris-HCl (pH 7.5), 100 mM KCl, 0.5% bovine serum albumin) at room temperature for 1 h. The formation of product is assessed by measuring the fluorescence of aminomethylcoumarin product (excitation wavelength 380 nm/emission wavelength 460 nm).
Chain of human LTA4 hydrolase (P09960 whole entry): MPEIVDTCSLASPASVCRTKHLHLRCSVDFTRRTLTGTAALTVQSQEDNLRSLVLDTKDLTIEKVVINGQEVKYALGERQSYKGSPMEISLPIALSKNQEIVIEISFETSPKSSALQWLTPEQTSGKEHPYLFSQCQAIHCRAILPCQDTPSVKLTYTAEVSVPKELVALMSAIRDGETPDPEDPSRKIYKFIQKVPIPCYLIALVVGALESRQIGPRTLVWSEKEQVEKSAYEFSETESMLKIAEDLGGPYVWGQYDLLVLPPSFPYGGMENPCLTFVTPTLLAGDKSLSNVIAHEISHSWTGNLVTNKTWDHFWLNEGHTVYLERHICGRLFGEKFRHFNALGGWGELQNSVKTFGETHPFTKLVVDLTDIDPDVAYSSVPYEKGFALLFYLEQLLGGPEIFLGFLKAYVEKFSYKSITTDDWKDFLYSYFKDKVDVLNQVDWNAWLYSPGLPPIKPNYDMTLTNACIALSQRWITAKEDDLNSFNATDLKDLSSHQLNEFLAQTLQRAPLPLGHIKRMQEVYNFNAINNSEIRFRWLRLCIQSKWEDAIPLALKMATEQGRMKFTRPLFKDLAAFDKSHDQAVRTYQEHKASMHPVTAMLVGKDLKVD

Experiment [1] relates to synthesis of LTB4 in human whole blood. Put plainly: LTB4 production inhibition assay in human whole blood (HWB). The class given is cell-based. As to conditions: heparinized human whole blood, 15 min at 37° C., Calcimycin 20 μM 30 min, plasma LTB4 by HTRF. Here is the method:
The compounds of the invention are additionally tested in a human whole blood (HWB) assay to determine their ability to inhibit the synthesis of LTB4 in a cellular system. Compounds are combined with heparinized human whole blood and incubated for 15 minutes at 37° C. Calcimycin (20 μM final, prepared in phosphate-buffered saline, pH 7.4) is then added and the mixture is incubated for another 30 minutes at 37° C. The samples are centrifuged for 5 min at low speed (1500×g) and the plasma layer is removed. Plasma LTB4 concentrations are then measured using an antibody-based homogenous time-resolved fluorescence method (CisBio, Bedford, Mass.).
Background: TR-FRET usually uses a lanthanide donor and a delayed reading to cut background.

Regarding `OC1CN(Cc2ccc3cc(Oc4ccc(-c5ccn[nH]5)cn4)ccc3c2)C1` [Example 1, 1-{6-[5-(2H-Pyrazol-3-yl)-pyridin-2-yloxy]-naphthalen-2-ylmethyl}-azetidin-3-ol], the IC50 on human LTA4 hydrolase is 0.43 nM; in experiment [1], 140 nM.

For `NC(=O)C1CN(Cc2ccc3cc(Oc4ccc(-c5ccn[nH]5)cn4)ccc3c2)C1` [Example 2, 1-{6-[5-(2H-Pyrazol-3-yl)-pyridin-2-yloxy]-naphthalen-2-ylmethyl}-azetidine-3-carboxylic acid amide], the IC50 against human LTA4 hydrolase was 0.46 nM; in experiment [1], 210 nM.

As for `CC(=O)NC1CN(Cc2ccc3cc(Oc4ccc(-c5ccn[nH]5)cn4)ccc3c2)C1` [Example 3, N-(1-{6-[5-(2H-Pyrazol-3-yl)-pyridin-2-yloxy]-naphthalen-2-ylmethyl}-azetidin-3-yl)-acetamide], the IC50 was found to be 0.5 nM against human LTA4 hydrolase and 200 nM in experiment [1].

For `OCC1CN(Cc2ccc3cc(Oc4ccc(-c5ccn[nH]5)cn4)ccc3c2)C1` [Example 4, (1-{6-[5-(2H-Pyrazol-3-yl)-pyridin-2-yloxy]-naphthalen-2-ylmethyl}-azetidin-3-yl)-methanol], the IC50 on human LTA4 hydrolase came out at 0.48 nM; in experiment [1], 160 nM.

In the case of `O[C@H]1CCN(Cc2ccc3cc(Oc4ccc(-c5ccn[nH]5)cn4)ccc3c2)C1` [Example 5, (S)-1-{6-[5-(2H-Pyrazol-3-yl)-pyridin-2-yloxy]-naphthalen-2-ylmethyl}-pyrrolidin-3-ol], the values for the IC50 (against human LTA4 hydrolase; in experiment [1]) were 0.6 nM and 130 nM, respectively.

Turning to `O[C@@H]1CCN(Cc2ccc3cc(Oc4ccc(-c5ccn[nH]5)cn4)ccc3c2)C1` [Example 6, (R)-1-{6-[5-(2H-Pyrazol-3-yl)-pyridin-2-yloxy]-naphthalen-2-ylmethyl}-pyrrolidin-3-ol], the IC50 amounted to 0.57 nM at human LTA4 hydrolase and 130 nM in experiment [1].

As to `O=C(CO)N1CCN(Cc2ccc3cc(Oc4ccc(-c5ccn[nH]5)cn4)ccc3c2)CC1` [Example 7, 2-Hydroxy-1-(4-{6-[5-(2H-pyrazol-3-yl)-pyridin-2-yloxy]-naphthalen-2-ylmethyl}-piperazin-1-yl)-ethanone], the results for the concentration for half-maximal inhibition (IC50) (against human LTA4 hydrolase; in experiment [1]) were 0.4 nM and 120 nM, respectively.

With `O=C1[C@@H](O)CCN1C1CCN(Cc2ccc3cc(Oc4ccc(-c5ccn[nH]5)cn4)ccc3n2)CC1` [Example 8, (S)-3-Hydroxy-1-(1-{6-[5-(2H-pyrazol-3-yl)-pyridin-2-yloxy]-quinolin-2-ylmethyl}-piperidin-4-yl)-pyrrolidin-2-one], the concentration for half-maximal inhibition (IC50) against human LTA4 hydrolase was 0.86 nM; in experiment [1], 230 nM.

With `O=C(CO)NC1CCN(Cc2ccc3cc(Oc4ccc(-c5ccn[nH]5)cn4)ccc3c2)CC1` [Example 9, 2-Hydroxy-N-(1-{6-[5-(2H-pyrazol-3-yl)-pyridin-2-yloxy]-naphthalen-2-ylmethyl}-piperidin-4-yl)-acetamide], the half-inhibitory concentration (IC50) worked out at 0.5 nM against human LTA4 hydrolase and 170 nM in experiment [1].

For `OC1CC2(C1)CN(Cc1ccc3cc(Oc4ccc(-c5ccn[nH]5)cn4)ccc3c1)C2` [Example 10, 2-{6-[5-(2H-Pyrazol-3-yl)-pyridin-2-yloxy]-naphthalen-2-ylmethyl}-2-aza-spiro[3.3]heptan-6-ol], the concentration for half-maximal inhibition (IC50) was 0.48 nM against human LTA4 hydrolase and 150 nM in experiment [1].

For `CC1(O)CN(Cc2ccc3cc(Oc4ccc(-c5ccn[nH]5)cn4)ccc3c2)C1` [Example 11, 3-Methyl-1-{6-[5-(2H-pyrazol-3-yl)-pyridin-2-yloxy]-naphthalen-2-ylmethyl}-azetidin-3-ol], the half-maximal inhibitory concentration (IC50) was found to be 0.53 nM at human LTA4 hydrolase and 110 nM in experiment [1].

Regarding `CC(=O)N[C@@H]1CCN(Cc2ccc3cc(Oc4ccc(-c5ccn[nH]5)cn4)ccc3c2)C1` [Example 12, N-((R)-1-{6-[5-(2H-Pyrazol-3-yl)-pyridin-2-yloxy]-naphthalen-2-ylmethyl}-pyrrolidin-3-yl)-acetamide], the results for the half-inhibitory concentration (IC50) (against human LTA4 hydrolase; in experiment [1]) were 0.34 nM and 120 nM, respectively.

For the compound `CC(=O)N[C@H]1CCN(Cc2ccc3cc(Oc4ccc(-c5ccn[nH]5)cn4)ccc3c2)C1` [Example 13, N-((S)-1-{6-[5-(2H-Pyrazol-3-yl)-pyridin-2-yloxy]-naphthalen-2-ylmethyl}-pyrrolidin-3-yl)-acetamide], the IC50 on human LTA4 hydrolase was 0.79 nM; in experiment [1] it was 290 nM.

On to `O[C@H]1CCCN(Cc2ccc3cc(Oc4ccc(-c5ccn[nH]5)cn4)ccc3c2)C1` [Example 14, (S)-1-{6-[5-(2H-Pyrazol-3-yl)-pyridin-2-yloxy]-naphthalen-2-ylmethyl}-piperidin-3-ol], for which the IC50 amounted to 1.2 nM at human LTA4 hydrolase and 190 nM in experiment [1].

For `O[C@@H]1CCCN(Cc2ccc3cc(Oc4ccc(-c5ccn[nH]5)cn4)ccc3c2)C1` [Example 15, (R)-1-{6-[5-(2H-Pyrazol-3-yl)-pyridin-2-yloxy]-naphthalen-2-ylmethyl}-piperidin-3-ol], the results for the half-inhibitory concentration (IC50) (on human LTA4 hydrolase; in experiment [1]) were 1 nM and 190 nM, respectively.

Turning to `CN(CCO)Cc1ccc2cc(Oc3ccc(-c4ccn[nH]4)cn3)ccc2c1` [Example 16, 2-(Methyl-{6-[5-(2H-pyrazol-3-yl)-pyridin-2-yloxy]-naphthalen-2-ylmethyl}-amino)-ethanol], the concentration for half-maximal inhibition (IC50) was determined as 0.7 nM at human LTA4 hydrolase and 160 nM in experiment [1].

Consider `OCC1CCN(Cc2ccc3cc(Oc4ccc(-c5ccn[nH]5)cn4)ccc3c2)CC1` [Example 17, (1-{6-[5-(2H-Pyrazol-3-yl)-pyridin-2-yloxy]-naphthalen-2-ylmethyl}-piperidin-4-yl)-methanol], for which the IC50 against human LTA4 hydrolase was determined as 0.75 nM; in experiment [1] it was 160 nM.

For the compound `OC[C@H]1CCN(Cc2ccc3cc(Oc4ccc(-c5ccn[nH]5)cn4)ccc3c2)C1` [Example 18, ((S)-1-{6-[5-(2H-Pyrazol-3-yl)-pyridin-2-yloxy]-naphthalen-2-ylmethyl}-pyrrolidin-3-yl)-methanol], the figures for the 50% inhibitory concentration (IC50) (on human LTA4 hydrolase; in experiment [1]) were 0.76 nM and 160 nM, respectively.

As to `CN(Cc1ccc2cc(Oc3ccc(-c4ccn[nH]4)cn3)ccc2c1)[C@@H]1CCN(C(=O)CO)C1` [Example 19, 2-Hydroxy-1-[(R)-3-(methyl-{6-[5-(2H-pyrazol-3-yl)-pyridin-2-yloxy]-naphthalen-2-ylmethyl}-amino)-pyrrolidin-1-yl]-ethanone], the IC50 against human LTA4 hydrolase worked out at 0.63 nM; in experiment [1], 140 nM.

For `CN(C(=O)CO)[C@H]1CCN(Cc2ccc3cc(Oc4ccc(-c5ccn[nH]5)cn4)ccc3c2)C1` [Example 20, 2-Hydroxy-N-methyl-N-((S)-1-{6-[5-(2H-pyrazol-3-yl)-pyridin-2-yloxy]-naphthalen-2-ylmethyl}-pyrrolidin-3-yl)-acetamide], the IC50 came out at 0.76 nM on human LTA4 hydrolase and 150 nM in experiment [1].

For the compound `CN(C(=O)CO)[C@@H]1CCN(Cc2ccc3cc(Oc4ccc(-c5ccn[nH]5)cn4)ccc3c2)C1` [Example 21, 2-Hydroxy-N-methyl-N-((R)-1-{6-[5-(2H-pyrazol-3-yl)-pyridin-2-yloxy]-naphthalen-2-ylmethyl}-pyrrolidin-3-yl)-acetamide], the IC50 was 0.67 nM at human LTA4 hydrolase and 100 nM in experiment [1].

On to `OC[C@@H]1CCN(Cc2ccc3cc(Oc4ccc(-c5ccn[nH]5)cn4)ccc3c2)C1` [Example 22, ((R)-1-{6-[5-(2H-Pyrazol-3-yl)-pyridin-2-yloxy]-naphthalen-2-ylmethyl}-pyrrolidin-3-yl)-methanol], for which the IC50 against human LTA4 hydrolase amounted to 0.64 nM; in experiment [1], 130 nM.

With `CN(Cc1ccc2cc(Oc3ccc(-c4ccn[nH]4)cn3)ccc2c1)[C@H]1CCN(C(=O)CO)C1` [Example 23, 2-Hydroxy-1-[(S)-3-(methyl-{6-[5-(2H-pyrazol-3-yl)-pyridin-2-yloxy]-naphthalen-2-ylmethyl}-amino)-pyrrolidin-1-yl]-ethanone], the figures for the half-maximal inhibitory concentration (IC50) (against human LTA4 hydrolase; in experiment [1]) were 0.9 nM and 170 nM, respectively.

As for `COCC(=O)N1CCN(Cc2ccc3cc(Oc4ncc(-c5ccn[nH]5)cn4)ccc3c2)CC1` [Example 24, 2-Methoxy-1-(4-{6-[5-(2H-pyrazol-3-yl)-pyrimidin-2-yloxy]-naphthalen-2-ylmethyl}-piperazin-1-yl)-ethanone], the figures for the concentration for half-maximal inhibition (IC50) (at human LTA4 hydrolase; in experiment [1]) were 2 nM and 290 nM, respectively.

`CC(=O)N1CCN(Cc2ccc3cc(Oc4ncc(-c5ccn[nH]5)cn4)ccc3c2)CC1` [Example 25, 1-(4-{6-[5-(2H-Pyrazol-3-yl)-pyrimidin-2-yloxy]-naphthalen-2-ylmethyl}-piperazin-1-yl)-ethanone]: the IC50 on human LTA4 hydrolase was 1.7 nM; in experiment [1], 520 nM.

Consider `OC1CCN(Cc2ccc3cc(Oc4ncc(-c5ccn[nH]5)cn4)ccc3c2)CC1` [Example 26, 1-{6-[5-(2H-Pyrazol-3-yl)-pyrimidin-2-yloxy]-naphthalen-2-ylmethyl}-piperidin-4-ol], for which the IC50 at human LTA4 hydrolase was found to be 2.3 nM; in experiment [1], 240 nM.

For the compound `NC(=O)C1CCN(Cc2ccc3cc(Oc4ncc(-c5ccn[nH]5)cn4)ccc3c2)CC1` [Example 27, 1-{6-[5-(2H-Pyrazol-3-yl)-pyrimidin-2-yloxy]-naphthalen-2-ylmethyl}-piperidine-4-carboxylic acid amide], the IC50 at human LTA4 hydrolase came to 1.4 nM; in experiment [1] it was 200 nM.

For the compound `N#CC1(C(=O)N2CCN(Cc3ccc4cc(Oc5ccc(-c6ccn[nH]6)cn5)ccc4n3)CC2)CCCC1` [Example 147, 1-(4-{6-[5-(2H-Pyrazol-3-yl)-pyridin-2-yloxy]-quinolin-2-ylmethyl}-piperazine-1-carbonyl)-cyclopentanecarbonitrile], 12 nM corresponded to half-maximal inhibition at human LTA4 hydrolase (IC50).

Usually IC50 stands for the concentration that inhibits the measured activity by half.
